Experimental data: publication PMC6747274, “Multifunctional Peptides from Spanish Dry-Cured Pork Ham: Endothelial Responses and Molecular Modeling Studies” (International Journal of Molecular Sciences, 2019)
Where no end group is shown, it is not given here.

Tests used:
[1] = test system: ICAM-1 protein, EA.hy926 cells; assay: Intracellular ICAM-1 protein by western blot; format: cell-based, human; conditions: 300 µM peptide + 100 ng/mL TNF-α vs TNF-α stimulation; p < 0.01
Description: EA.hy926 were seeded in six-well plates at 0.25 × 10^6 cells/well in DMEM supplemented with 5% FBS. Cells were treated with 300 µM of each peptide for 16 h. Then, 100 ng/mL TNF-α or 300 µM H2O2 were added for an additional 6 h or 24 h, respectively.
Supplementary Material and Methods
1.1. Human ACE Inhibitio n Assa y
Before transfection, the endothelial ACE expressio n level was very low and the p roduct of the enzymatic reaction undete ctable, and so a recombinant construct e ncodi ng the Myc-Tag fused to the ACE ge ne was used. T o overexpress the ACE enzyme, EA.hy926 cel ls were seeded in 24-well plates at 80,000 cells/well and transiently transfec ted with a human Ace ORF mammali an expression plasmid (Sinobiological, Beijing, China) using trans-it X2 reagent ( Myrus®, Madi son, […]
Wisconsin, USA). […] The effi ciency of […]
transfecti on was checked by immunofluorescence. Briefly, 48 h post-transfection, cells were fixed with 4% paraformaldehyd e in culture medi um for 15 min at room temperatur e, blocked with 1% bo vine seru m albumin (BSA) in phosph ate buffer for 30 min followed by 0.2% sapo nin for 30 min to permeabil ize the membr ane. […]
The mRNA level s of the target genes (ICAM-1, VCAM-1, IL-6, eNOS, SOD, catal ase, NADPH, BAX) were quantified by RT-PCR using Se nsiFAST SYBER Hi-ROX Kit (Bioline, Taunton, USA) with StepOnePlus Real-Time PCR Sy stem (Appl ied Bi osystems, Foster City, CA, USA) using speci fi c and vali dated pri mers (Si gma-Al drich Chemical Co., Saint Louis, MO, USA).
The tetr azolium assay (MTT) was used to estimate the cel l viability in the presence of synthetic pepti des (up to 600 µM) and 300 µM H2O2. […] The formazan crystals formed in the intact cel ls were dissol ved in 200 µL dimethyl sulfoxide (DMSO) for 30 min and the absorbance was measured in a micro plate reader at 570 nm and 620 nm of reference. Results wer e calculated as cel l viability (%) = average optic density (OD) of wells/ave rage OD of control wells. […]

NF-κB, EA.hy926 cells = assay: NF-κB dual luciferase reporter assay; format: cell-based, human; conditions: 300 µM peptide 16 h, then 50 ng/mL TNF-α 6 h
Description: To evaluate whether the synthetic peptides could modulate the NF-κB biological activity, a luciferase reporter assay was carried out, using the Renilla reporter as a specificity control and indicator of cell proliferation. In this study, NF-B activity was induced at a lower concentration of TNF-α (50 ng/mL) because of the high sensitivity of the approach. The normalized firefly/Renilla luciferase activity was reduced by around 25% of the activity when cells were pretreated with the BP1 (p = 0.002), BP2 (p = 0.003), and BP3 (p = 0.003) synthetic peptides (Figure 3). […] The basal activity for NF-κB was not inhibited by synthetic peptides without TNF-α stimulation (data not shown).
The dual luciferase assay has been widely used in cell lines to rapidly and accurately determine the activity of the promoter of NF-κB. […]
For luciferase reporter assays, 80,000 cells/well were seeded in 24-well plates overnight, followed by cotransfection with 0.5 μg pNF-κB:Luc/pRL-CMV at a ratio of 10:1 using 1.5 μL trans-it X2 reagent (Myrus®, Madison, WI, USA). […] NF-κB-dependent firefly luciferase activity and NF-κB-independent Renilla luciferase activity were assessed using Dual-Luciferase® Reporter Assay System (Promega, Madison, WI, USA) in a Luminometer Optocomp I (MGM Instruments). […]

Row | Substance | ICAM-1 protein production (western blot) [1] | reduction of normalized firefly/Renilla NF-κB luciferase activity (NF-κB, EA.hy926 cells; vs TNF-α, p = 0.002 (BP1), 0.003 (BP2), 0.003 (BP3), three independent experiments) | NF-κB activation (in words) (NF-κB, EA.hy926 cells; BP4 p = 0.012)
1 | KAAAATP [BP2] | lower production of ICAM-1 protein | around 25% | 
2 | AAATP [BP4] | lower production of ICAM-1 protein |  | repressed by BP4 to a lesser degree
